Patent publication US10098352B2, “Honeybee repellents and uses thereof” (Inscent, Inc., priority 2011, dated 2018)

Tests used:
[1] = system: OBP2; assay: Fluorescent-quench ligand-protein-binding assay (OBP2 binding screen); set-up: species or system Apis mellifera; key: Low, indicates no detectable binding to OBP2.; Moderate, indicates that 50% or less of the compound bound to OBP2.; Strong, indicates that 51% or more of the compound bound to OBP2
Text: To identify a honeybee repellent disclosed herein, candidate compounds were screened based upon the fact that 2-heptanone is an established repellent of bees. 2-heptanone is thought to mediate its behavioral response through binding to a specific odorant-binding protein called OBP2. Therefore compounds that bind OBP2 have the potential to act as odor “mimics” of 2-heptanone. By utilizing a fluorescent-quench, ligand-protein-binding assay, 30,000 compounds from the DIVERSET® library (ChemBridge Corp., San Diego, Calif.), a chemical library, were screened and over 150 candidate compounds were isolated that bind OBP2 (Table 1). Such assays are generally known in the art. See, e.g., Briand, et al., Ligand-Binding Properties and Structural Characterization of a Novel Rat Odorant-Binding Protein Variant, Eur. J. Biochem. 267(10): 3079-3089 (2000); Briand, et al., Ligand Binding and Physico-Chemical Properties of ASP2, A Recombinant Odorant-Binding Protein From Honeybee (Apis mellifera L.), Eur. J. Biochem. 268(3): 752-760 (2001); Briand, et al., Characterization of a Chemosensory Protein (ASP3c) from Honeybee (Apis mellifera L.) as a Brood Pheromone Carrier, Eur. J. Biochem. 269(18): 4586-4596 (2002), each of which is hereby incorporated by reference in its entirety.

[2] = system: Apis mellifera Carniolan foraging worker honeybees; assay: Proboscis extension response (PER) assay in bees conditioned to 2-heptanone; assay type: in vivo; details: final compound concentration 0.5% (TRITON X-100/water), 4 s exposure; only bees PER-positive to 2-heptanone and negative to controls counted
Description: To determine whether a living honeybee can recognize a candidate compound, these compounds were tested using a proboscis extension response (PER) assay using classical conditioning approaches. Proboscis extension response conditioning is a case of appetitive learning, in which bees learn to associate odor stimuli with sucrose reward in the laboratory. In this case, bees were conditioned to produce a PER to 2-heptanone as the conditioned stimulus and a sugar reward as the unconditioned stimulus. These trained bees were then exposed to an odor pulse of a candidate compound to test whether a candidate compound would also produce a PER. If the candidate compound “mimics” 2-heptanone then the honeybee will extend its proboscis.
For conditioning procedures, Apis mellifera Carniolan foraging worker honeybees were obtained from a local apiary (typically 60 bees per shipment). The honeybees were held overnight in insect cages with food and water freely available, in an environmentally controlled room on a light cycle similar to the ambient cycle at the time of the assay.
For conditioning procedures, all tests were done in an odorant delivery apparatus set inside a fume hood. The apparatus comprised a set of open-ended, horizontal, 3 cm diameter by 10 cm long plastic tubes. Each tube was designed where a honeybee could be positioned at the distal end of a tube, with the opening at the other end of the tube located proximal to an inlet of the fume hood. To deliver an odorant, room air was pumped by a diaphragm pump through a particle filter via 0.25 inch plastic tubing at approximately 0.7 m/sec. The air flow passes into the headspace above an odorant (0.5% [v/v]2-heptanone dissolved in odorless light paraffin oil) contained in a 100 mL bottle. The headspace air then passes through another plastic tube to a manifold of 4-way valves, each of which was attached near the proximal end of a plastic tube containing a bee. Each bee was exposed separately for a desired time period to the odorant by opening and closing the appropriate valve. When each valve was closed, the odor was flushed away immediately by the continuous fume hood air stream.
To train a honeybee to respond to a conditioned and unconditioned stimuli, bees were placed, without anesthesia, in individual 1.5 mL micro-centrifuge holding tubes and held overnight without access to food or water. The holding tubes containing the starved bees were placed in racks in groups of eight. One rack at a time was placed behind the odorant delivery apparatus so that each bee's head is centered at the distal end of a horizontal plastic tube. Each bee was exposed to the 2-heptanone odorant alone for four seconds, and then while being fed an 80% sucrose solution for and additional three seconds. The sucrose solution was delivered on a piece of saturated filter paper held in forceps. […] Positive and negative responses were recorded. A positive PER was scored when a bee extended its proboscis before the sucrose appeared. In a typical trial, 48 individual bees were subjected to conditioning. Six rounds of training were done before testing began, and typically a majority of the bees were successfully conditioned by the second or third round of training.
After conditioning, honeybees were tested with the candidate compounds the same day or on the following day or, most commonly, both. When held overnight, bees were fed with sucrose and kept in their holding tubes. When tested the day after training, bees were given one or more rounds of conditioning with 2-heptatone to refresh their memories. Candidate compounds stocks were made at 5% (w/v) in polyoxyethylene octyl phenyl ether (TRITON® X-100), a non-ionic detergent/surfactant, and stored at 4° C. This detergent is similar to substances used as carriers for a variety of commercial pest-control agents, can act as a solvent for both hydrophilic and hydrophobic substances, and is itself nearly odorless. […]

Q: What does the source list for `O=[N+]([O-])c1cc2c(cc1CN1CCN(c3cccc(Cl)c3)CC1)OCO2` [compound 64]?
A: OBP2 binding characteristic of compound [1]: Moderate (Moderate, indicates that 50% or less of the compound bound to OBP2.); 2-heptanone positive bees testing positive to compound [2]: 7.0%

Q: Which “2-heptanone positive bees testing positive to compound” value [2] does the source give for `COc1cc(CN2CCN(Cc3ccc4c(c3)OCO4)CC2)c([N+](=O)[O-])cc1OC` [compound 46] here?
A: 12.8%

Q: What does the source list for `c1ccc(CCN(Cc2ccccc2)Cc2cccnc2)cc1` [compound 39]?
A: OBP2 binding characteristic of compound [1]: Moderate (Moderate, indicates that 50% or less of the compound bound to OBP2.); 2-heptanone positive bees testing positive to compound [2]: 1.9%

Q: Which “OBP2 binding characteristic of compound” value [1] does the source give for `CC(C)(C)C1=CC(=NNC(N)=S)C=C(C(C)(C)C)C1=O` [compound 42] here?
A: Moderate (Moderate, indicates that 50% or less of the compound bound to OBP2.)

Q: What about the “2-heptanone positive bees testing positive to compound” value [2] of the same molecule?
A: 2.6%

Q: Which results are given for `CC(C)Nc1c(Cl)c(Cl)c(Cl)c2c1C(=O)c1ccccc1C2=O` [compound 22]?
A: OBP2 binding characteristic of compound [1]: Strong (Strong, indicates that 51% or more of the compound bound to OBP2.); 2-heptanone positive bees testing positive to compound [2]: 4.4%

Q: With `Ic1ccc(-c2cn3ccsc3n2)cc1` [compound 53] as the molecule, how does the “OBP2 binding characteristic of compound” value [1] read?
A: Moderate (Moderate, indicates that 50% or less of the compound bound to OBP2.)

Q: What about the “2-heptanone positive bees testing positive to compound” value [2] of the same molecule?
A: 18.2%

Q: Which “OBP2 binding characteristic of compound” value [1] does the source give for `CCN1C(=O)C(=Cc2ccc(O)cc2)SC1=S` [compound 15] here?
A: Strong (Strong, indicates that 51% or more of the compound bound to OBP2.)

Q: And the “2-heptanone positive bees testing positive to compound” value [2]?
A: 4.1%

Q: With `COC(=O)c1cc(S(=O)(=O)Nc2ccc(Br)cc2)ccc1Cl` [compound 44] as the molecule, how does the “OBP2 binding characteristic of compound” value [1] read?
A: Moderate (Moderate, indicates that 50% or less of the compound bound to OBP2.)

Q: And the “2-heptanone positive bees testing positive to compound” value [2]?
A: 7.3%

Q: Which “2-heptanone positive bees testing positive to compound” value [2] does the source give for `COc1ccc(CN(C)CCN(C)C)c(C)c1C` [compound 66] here?
A: 3.1%

Q: `CCOC(=O)c1cc(-c2cccc(N)c2)nc2ccccc12` [compound 21] was tested. Which “OBP2 binding characteristic of compound” value [1] did it give?
A: Strong (Strong, indicates that 51% or more of the compound bound to OBP2.)

Q: What about the “2-heptanone positive bees testing positive to compound” value [2] of the same molecule?
A: 4.4%

Q: What does the source list for `O=C(COC(=O)c1ccccc1)c1cccc(Br)c1` [compound 54]?
A: OBP2 binding characteristic of compound [1]: Moderate (Moderate, indicates that 50% or less of the compound bound to OBP2.); 2-heptanone positive bees testing positive to compound [2]: 9.1%

Q: For `COc1ccc(CN2CCN(c3cccc(C)c3C)CC2)c(C)c1C` [compound 29], which “OBP2 binding characteristic of compound” value [1] is on record?
A: Low*

Q: And the “2-heptanone positive bees testing positive to compound” value [2]?
A: 0.0%

Q: `O=C(NCCCOC(=O)c1ccc(Cl)cc1)c1ccc(Cl)cc1` [compound 58] was tested. Which “OBP2 binding characteristic of compound” value [1] did it give?
A: Moderate (Moderate, indicates that 50% or less of the compound bound to OBP2.)

Q: What about the “2-heptanone positive bees testing positive to compound” value [2] of the same molecule?
A: 8.3%

Q: Which “OBP2 binding characteristic of compound” value [1] does the source give for `O=[N+]([O-])c1cc2c(cc1CN1CCN(c3ccccc3)CC1)OCO2` [compound 61] here?
A: Moderate (Moderate, indicates that 50% or less of the compound bound to OBP2.)

Q: And the “2-heptanone positive bees testing positive to compound” value [2]?
A: 17.4%

Q: Which “2-heptanone positive bees testing positive to compound” value [2] does the source give for `COc1ccc(CN2CCN(Cc3cccc(C)c3)CC2)cc1` [compound 65] here?
A: 6.3%

Q: `COc1ccc2ccccc2c1C=NN1C(=O)c2ccccc2C1=O` [compound 13] was tested. Which “2-heptanone positive bees testing positive to compound” value [2] did it give?
A: 8.7%

Q: `COc1ccc(CN2CCOCC2)c(C)c1C` [compound 33] was tested. Which “OBP2 binding characteristic of compound” value [1] did it give?
A: Low*

Q: What about the “2-heptanone positive bees testing positive to compound” value [2] of the same molecule?
A: 8.5%

Q: With `COc1ccc(CN2CCOCC2)c(C)c1C` [compound 63] as the molecule, how does the “2-heptanone positive bees testing positive to compound” value [2] read?
A: 10.9%

Q: Which results are given for `O=C(C=Cc1ccccc1)OCC1CCCN(Cc2cccc([N+](=O)[O-])c2)C1` (centres unmarked) [compound 23]?
A: OBP2 binding characteristic of compound [1]: Strong (Strong, indicates that 51% or more of the compound bound to OBP2.); 2-heptanone positive bees testing positive to compound [2]: 3.3%

Q: With `CCCCn1c(=O)c(C(=O)NCc2ccccn2)c(O)c2ccccc21` [compound 16] as the molecule, how does the “OBP2 binding characteristic of compound” value [1] read?
A: Strong (Strong, indicates that 51% or more of the compound bound to OBP2.)

Q: What about the “2-heptanone positive bees testing positive to compound” value [2] of the same molecule?
A: 6.2%

Q: For `O=C(C=Cc1c[nH]c2ccccc12)c1ccc(-c2ccccc2)cc1` [compound 52], which “2-heptanone positive bees testing positive to compound” value [2] is on record?
A: 13.9%

Q: What does the source list for `CC1CN(c2ccc([N+](=O)[O-])c(NCCOc3ccc(Cl)cc3)c2)CCN1` (centres unmarked) [compound 60]?
A: OBP2 binding characteristic of compound [1]: Moderate (Moderate, indicates that 50% or less of the compound bound to OBP2.); 2-heptanone positive bees testing positive to compound [2]: 25.0%

Q: How did the “2-heptanone positive bees testing positive to compound” value [2] turn out when `CN(CCc1ccccn1)Cc1cc2c(cc1[N+](=O)[O-])OCO2` [compound 48] was run?
A: 18.9%

Q: Which “2-heptanone positive bees testing positive to compound” value [2] does the source give for `COc1ccc(CN2CCN(c3ccc(C)cc3)CC2)c(C)c1C` [compound 49] here?
A: 0.0%

Q: What does the source list for `COc1ccc2oc(C)c(C(=O)c3ccc(Br)cc3)c2c1` [compound 17]?
A: OBP2 binding characteristic of compound [1]: Strong (Strong, indicates that 51% or more of the compound bound to OBP2.); 2-heptanone positive bees testing positive to compound [2]: 6.2%

Q: How did the “2-heptanone positive bees testing positive to compound” value [2] turn out when `O=C(C=Cc1c[nH]c2ccccc12)c1ccc(C(=O)C=Cc2c[nH]c3ccccc23)cc1` [compound 51] was run?
A: 14.8%

Q: For `CN1CCN(Cc2cc3c(cc2[N+](=O)[O-])OCO3)CC1` [compound 45], which “2-heptanone positive bees testing positive to compound” value [2] is on record?
A: 11.6%

Q: With `COc1ccccc1N1C(=O)C(=Cc2ccc(Cl)cc2)SC1=S` [compound 5] as the molecule, how does the “2-heptanone positive bees testing positive to compound” value [2] read?
A: 7.1%

Q: With `O=[N+]([O-])c1cc2c(cc1CN1CCN(c3cccc(Cl)c3)CC1)OCO2` [compound 24] as the molecule, how does the “2-heptanone positive bees testing positive to compound” value [2] read?
A: 4.8%

Q: For `COc1ccc(CN2CCN(C)CC2)c(C)c1C` [compound 25], which “OBP2 binding characteristic of compound” value [1] is on record?
A: Low*

Q: And the “2-heptanone positive bees testing positive to compound” value [2]?
A: 6.6%

Q: What does the source list for `CCn1c2ccccc2c2cc(C=Nc3ccc(C(N)=O)cc3)ccc21` [compound 56]?
A: OBP2 binding characteristic of compound [1]: Moderate (Moderate, indicates that 50% or less of the compound bound to OBP2.); 2-heptanone positive bees testing positive to compound [2]: 18.2%

Q: How did the “OBP2 binding characteristic of compound” value [1] turn out when `COC(=O)C=C(C)NC(=O)c1ccc(F)cc1` [compound 59] was run?
A: Moderate (Moderate, indicates that 50% or less of the compound bound to OBP2.)

Q: What about the “2-heptanone positive bees testing positive to compound” value [2] of the same molecule?
A: 16.7%

Q: Which “2-heptanone positive bees testing positive to compound” value [2] does the source give for `COc1ccc(CN2CCN(C)CC2)c(C)c1C` [compound 62] here?
A: 11.6%

Q: For `CCN(CC)c1ccc2c(C)c([N+](=O)[O-])c(=O)oc2c1` [compound 6], which “2-heptanone positive bees testing positive to compound” value [2] is on record?
A: 0.0%

Q: Which “2-heptanone positive bees testing positive to compound” value [2] does the source give for `CCOc1ccc(C=Nc2ccc(Br)c(Cl)c2)cc1` [compound 12] here?
A: 5.8%

Q: For `O=[N+]([O-])c1cc2c(cc1CN1CCSCC1)OCO2` [compound 47], which “2-heptanone positive bees testing positive to compound” value [2] is on record?
A: 18.3%

Q: With `COC(=O)C1=C(C(=O)OC)SC(=C2C(=S)C(C)(C)N(C)c3ccccc32)S1` [compound 4] as the molecule, how does the “2-heptanone positive bees testing positive to compound” value [2] read?
A: 4.7%

Q: How did the “2-heptanone positive bees testing positive to compound” value [2] turn out when `COc1cc(C)c(CN2CCN(CCO)CC2)cc1C` [compound 31] was run?
A: 0.0%

Q: How did the “2-heptanone positive bees testing positive to compound” value [2] turn out when `COc1ccc(CN(C)CCN(C)C)c(C)c1C` [compound 32] was run?
A: 2.4%
